Test results reported in patent US4963581A, “Naphthopyran derivatives and use thereof” (Takeda Chemical Industries, Ltd., priority 1988, dated 1990).

Tests used:
[1] = test system: various enzymes involved in the biosynthesis of steroid hormones; conditions: background statement in words; cited from earlier work
estrogen synthesis [2] = experiment: Estrogen synthesis inhibition in rats (PMSG-stimulated); type: in vivo, young SD rats; conditions: Test I, 100 mg/kg/day s.c., 4 days, Mean ± SD
estrogen synthesis [3] = experiment: as above; type: in vivo, young SD rats; conditions: 100 mg/kg/day s.c., 4 days, Mean ± SD
Method: Groups of five young SD rats ([…], 19 days old) were used. Test groups were administered subcutaneously with the test compounds suspended in 0.2% gum arabic-containing physiological saline in a dose of 25 mg/kg or 50 mg/kg at 24-hour intervals for consecutive 4 days. Non-test groups (control groups […]) were administered with 0.2 ml of 0.2% gum arabic-containing physiological saline. On the third day after initiation of the test, a single dose of pregnant mare serum gonadotropin (PMSG) was administered subcutaneously in a dose of 10 U/rat to the test groups and to the control group 2, following the administration of the test compounds. […] The plasma samples thus obtained were subjected to plasma estradiol-17B level determination by radioimmunoassay. The uterus and ovaries were excised from each rat and, after removal of superfluous connective tissues, weighed. The results thus obtained are shown in Table 2.4-Hydroxyandrostenedione (4-OHA) was used as a reference compound for the pharmacological effect evaluation.
*P < 0.05, **P < 0.02, ***P < 0.01, ****<0.001 against PMSG group

SMILES | inhibition of various enzymes involved in the biosynthesis of steroid hormones [1] | Body weight gain (estrogen synthesis [2]) [g] | Tissue weight, Ovaries (estrogen synthesis [3]; Test I) [mg] | Tissue weight, Uterus (estrogen synthesis [3]; Test I) [mg] | Plasma estradiol-17β level (estrogen synthesis [3]; Test I, PMSG control 568.6 ± 69.7) [pg/mL] | Body weight gain (estrogen synthesis [3]; Test II) [g] | Tissue weight, Ovaries (estrogen synthesis [3]; Test II) [mg] | Tissue weight, Uterus (estrogen synthesis [3]; Test II) [mg] | Plasma estradiol-17β level (estrogen synthesis [3]; Test II, PMSG control 240.0 ± 34.9) [pg/mL] | Body weight gain (estrogen synthesis [3]; Test III) [g] | Tissue weight, Ovaries (estrogen synthesis [3]; Test III) [mg] | Tissue weight, Uterus (estrogen synthesis [3]; Test III) [mg] | Plasma estradiol-17β level (estrogen synthesis [3]; Test III, PMSG control 327.9 ± 126.6) [pg/mL]
CCC1(c2ccc(N)cc2)CCC(=O)NC1=O (stereo not shown) [Aminoglutethimide] | inhibits various enzymes involved in the biosynthesis of steroid hormones | – | – | – | – | – | – | – | – | – | – | – | –
C[C@]12CCC(=O)C(O)=C1CC[C@@H]1[C@@H]2CC[C@]2(C)C(=O)CC[C@@H]12 [Compound 4-OHA, 4-Hydroxyandrostenedione, reference compound] | – | 25.0 ± 1.6 | 24.3 ± 4.5 | 60.6 ± 9.0 | 115.5 ± 47.4 | 22.8 ± 1.5 | 22.3 ± 3.3 | 61.5 ± 8.2 | 36.1 ± 33.0 | 24.8 ± 0.8 | 26.3 ± 1.7 | 71.9 ± 8.6 | 52.3 ± 21.7
